Read-outs that look alike come from different tables or passages of the source.
What was measured:
[1] = tested on: carrageenan induced edema in mouse foot pads; experiment: Anti-inflammatory screen (carrageenan induced foot edema); format: in vivo, mice; settings: for Anti-inflammatory Screen: mice
Method: CF1 male mice (about 30 g) were administered test drugs at 10 mg/kg in 0.05% polysorbate .80-water intraperitoneally 3 hr and 30 min prior to 0.05 ml of 2% carrageenan in 0.9% saline injected into the plantar surface of the right hind foot. Saline injected into the left hind foot served as a base line. After 3 hr, both feet were excised at the tibiotarsal (ankle) joint according to the modified (Roszkowski et al., J. Pharm. Exp. Ther., 179, 114 1971) method of Winter, resulting in an 87 mg net increase in the weight of the control animals' feet.

CF1 male mice = experiment: Writhing reflex (acetic acid); format: in vivo; settings: for Writhing Reflex: 20 mg/kg intraperitoneally, mice
Method: CF1 male mice were administered test drugs at 20 mg/kg intraperitoneally 20 min (see Hendershat et al., J. Pharmacol Exp. Ther. 125, 237 1959) prior to the administration of 0.5 ml of 0.6% acetic acid (Vingar et al., European J. PHarmacol, 37, 23 1976). After 5 min the number of stretches, characterized by repeated contractures of the abdominal musculature accompanied by extension of the hind limbs, was counted for the next 10 min. The control mice had 78 stretch reflexes per 10 min.

Acid phosphatase [2] = experiment: Lysosomal free acid phosphatase activity, liver homogenate; format: biochemical, rats; settings: 5 μmoles, in vitro; 20 min
Method: (§1) Lysosomal enzymatic assays - Sprague Dawley rats (about 160 g) were sacrificed, the liver excised, and a 10% homogenate (4x) in 0.25 M sucrose and 0.001 M (ethylenedinitrilo) tetra acetic acid, ph 7.2 was prepared.
(§2) Acid phosphatase activity (Gianetto et al., Biochem J., 59, 433 1955) was carried out by incubating with 0.1 Mβ-glycerol phosphate in 0.1 M acetate, pH 5.0 with 5 μmoles of test drugs in 1% carboxymethylcellulose (CMC) for 20 min with liver homogenate and 60 min with resuspended PMNs. Lysosome enzymes were released by 0.02% alkyl phenoxy polyethoxy ethanol-100 to obtain the total enzymatic activity. The reaction was stopped with 10% trichloroacetic acid and the solution centrifuged. Aliquots of the supernatant were assayed for inorganic phophate content by the method of Chen et al., Anal Chem., 28, 1756 (1956). Percent free acid phosphatase was calculated. Cathepsin activity was determined in an analagous manner except the substrate used was 2% azocasein (Schleuning et al., Methods in Enzymology, XLV, 330 1976) in 0.1 M acetate buffer pH 5.0. The supernatant was assayed for acid soluble peptide fragments at 366 nm. Percent free cathepsin activity was calculated.

Cathepsin [3] = experiment: Lysosomal free cathepsin activity, liver homogenate; format: biochemical, rats; settings: 5 μmoles; for Liver % Free Cathepsin Activity, pH5: in vitro, 20 min
Method: as §1, §2

Acid phosphatase [4] = experiment: Lysosomal free acid phosphatase activity, PMNs; format: cell-based; settings: 5 μmoles; for PMNs % Free Acid Phosphatase Activity, pH5: in vitro, 60 min
Method: (§3) Polymorphonuclear neutrophils (PMNs) were collected from the peritoneal cavity four hr after the injection of 35 ml of 0.5% oyster glycogen in isotonic saline (Orange et al., J. Exp. Med., 127, 767 1968). The PMNs were centrifuged down at 800 g for 20 min, washed, and resuspended in minumen essential medium (MEM) with 10% fetal calf serum pH 7.4.
as §2

Cathepsin [5] = experiment: Lysosomal free cathepsin activity, PMNs; format: cell-based; settings: 5 μmoles; for PMNs % Free Cathespin Activity, pH5: in vitro, 60 min
Method: as §3, §2

cAMP levels in PMNs = experiment: Cyclic-3',5'-adenosine monophosphate levels (cAMP) in PMNs; format: cell-based; settings: 1 h
Method: as §3
Isolated PMNs were incubated with test drugs at 5μ moles for 1 hr at 37° C. in MEM at pH 7.4. The reaction was stopped with 6% trichloroacetic acid. The cyclic-3',5'-adenosine monophosphate levels were determined by the radioimmunoassay of Gilman, Proc. Natl. Acad. Sci. (USA), 67, 305 (1970), using 3H(G)-cyclic-3',5'-adenosine monophosphate (39.8 Cu/m mol). Results were calculated in p mole/10^7 PMNs cells.

[6] = biological target: T1, prostaglandin synthetase from beef seminal vesicle (Bos taurus, UniProt O62664); experiment: Prostaglandin synthetase activity; format: biochemical; settings: 10^-6 M; for inhibition at 1 µM: read-out: inhibition of prostaglandin synthesis; for activity at 1 µM: 1 h, read-out: Prostaglandin Synthesis
T1 construct: purchased; host or cells: beef seminal vesicle
T1 sequence (O62664 25-600): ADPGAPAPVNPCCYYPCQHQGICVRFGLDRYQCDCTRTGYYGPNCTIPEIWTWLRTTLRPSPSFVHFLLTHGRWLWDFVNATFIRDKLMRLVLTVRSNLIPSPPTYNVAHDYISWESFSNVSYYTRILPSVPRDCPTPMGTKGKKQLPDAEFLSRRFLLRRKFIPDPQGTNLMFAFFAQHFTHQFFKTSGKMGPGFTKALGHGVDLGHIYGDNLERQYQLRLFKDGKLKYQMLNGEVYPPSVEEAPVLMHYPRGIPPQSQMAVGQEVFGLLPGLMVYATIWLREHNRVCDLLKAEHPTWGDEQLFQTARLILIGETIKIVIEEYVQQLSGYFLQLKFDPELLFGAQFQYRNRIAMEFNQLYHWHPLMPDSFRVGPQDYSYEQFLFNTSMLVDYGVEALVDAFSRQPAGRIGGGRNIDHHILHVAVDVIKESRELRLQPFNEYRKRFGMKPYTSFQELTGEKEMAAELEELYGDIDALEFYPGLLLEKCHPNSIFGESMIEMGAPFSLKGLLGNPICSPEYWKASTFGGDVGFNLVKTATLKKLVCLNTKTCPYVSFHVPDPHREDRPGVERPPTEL
Method: After 1 hr at 37° C. the reaction was stopped with 1 N HCl and extracted with ethyl ether and evaporated. […] The plates were dried and developed in iodine vapor and with the use of prostaglandin standards the appropriate areas were scraped and counted for ^3 H content. Indometacin was used as a standard at 10^-4 M concentration. Test drugs were used at 10^-6 M.

liver mitochondria [7] = experiment: Oxidative phosphorylation, succinate as substrate; format: biochemical, rats; settings: 5 μmoles; for Oxidative Phosphorylation Succinate State 3: ADP stimulated respiration; for Oxidative Phosphorylation Succinate State 4: basal respiration
Method: (§4) Basal and adenosine diphosphate stimulated respiration on 10% liver homogenates was measured using succinate or αketoglutarate as substrate. See Glatt, et al., supra. The reaction vessel contained sucrose 55μ moles, KCl 22μ moles, K2 HPO4 22μ moles, test compounds at 5μ moles in 1% CMC and sodium succinate 90μ moles or αketoglutarate 60μ moles in a total volume of 1.8 ml. […] The rate of respiration was calculated at μl of O2 consumed/hr/mg wet weight of liver.

liver mitochondria [8] = experiment: Oxidative phosphorylation, α-ketoglutarate as substrate; format: biochemical, rats; settings: 5 μmoles; for Oxidative Phosphorylation α Ketoglutarate State 3: ADP stimulated respiration; for Oxidative Phosphorylation α Ketoglutarate State 4: basal respiration
Method: as §4

in vivo = settings: mouse
[9] = pH 7.4, read-out: PMNs cAMP Level
[10] = pH 7.4, 5 μmoles, in vitro, read-out: PMNs cAMP Level

SMILES | Anti-inflammatory Screen ([1]; 10 mg/kg × 2 intraperitoneally) | Writhing Reflex (CF1 male mice) | Liver % Free Acid Phosphatase Activity, pH5 (Acid phosphatase [2]) | Liver % Free Cathepsin Activity, pH5 (Cathepsin [3]) | PMNs % Free Acid Phosphatase Activity, pH5 (Acid phosphatase [4]) | PMNs % Free Cathespin Activity, pH5 (Cathepsin [5]) | activity at 5 µmol (cAMP levels in PMNs; [9]) | inhibition at 1 µM [6] | activity at 1 µM [6] | Oxidative Phosphorylation Succinate State 3 (liver mitochondria [7]) | Oxidative Phosphorylation Succinate State 4 (liver mitochondria [7]) | Oxidative Phosphorylation α Ketoglutarate State 3 (liver mitochondria [8]) | Oxidative Phosphorylation α Ketoglutarate State 4 (liver mitochondria [8]) | LD50 (in vivo) | activity at 5 µmol (cAMP levels in PMNs; [10]) | both states 3 and 4 respiration with α-ketoglutarate (liver mitochondria [8]) | other results
C[NH+](C)[BH2-]C#N [VI, (CH3)2 NH.BH2 CN] | 49 % Control | 24 % Control | 73 ± 4 % Control | 32 ± 5 % Control | 89 ± 4 % Control | 22 ± 1 % Control | 98% | > 30% | 63 ± 4% | 61 ± 5 % Control | 126 ± 19 % Control | 45 ± 12 % Control | 128 ± 25 % Control | 39 mg/kg | – | – | inhibition of the carrageenan induced edema in mouse foot pads ([1]; text summary of Table II): at least 50%; inhibition of the writhing reflex (CF1 male mice; text summary of Table II): 70%; uncoupling with α-ketoglutarate as substrate (liver mitochondria [8]): uncoupling
N#C[BH2-][n+]1ccccc1 [XV, pyridinecyanoborane] | – | 80 % Control | 79 ± 3 % Control | 57 ± 4 % Control | 57 ± 4 % Control | 49 ± 7 % Control | – | > 30% | 58 ± 3% | 57 ± 16 % Control | 124 ± 16 % Control | 52 ± 15 % Control | 112 ± 42 % Control | 25 mg/kg | 110% | – | Anti-inflammatory Screen ([1]; 1/3 dose (of 10 mg/kg × 2)): 83 % Control
[BH3-][NH+](C)C [IV, (CH3)2 NH.BH3] | 66 % Control | 37 % Control | 82 ± 3 % Control | 67 ± 3 % Control | 82 ± 6 % Control | 65 ± 5 % Control | – | – | 100 ± 5% | 82 ± 4 % Control | 119 ± 9 % Control | 53 ± 16 % Control | 67 ± 18 % Control | 200 mg/kg | 80% | inhibited | –
N#C[BH2-][NH2+]CC[NH2+][BH2-]C#N [XX, Ethylenediamine-bis(cyanoborane)] | 87 % Control | 95 % Control | 77 ± 8 % Control | 80 ± 7 % Control | 100 ± 10 % Control | 57 ± 2 % Control | 28% | – | 81 ± 5% | 10 ± 5 % Control | 13 ± 5 % Control | 25 ± 8 % Control | 50 ± 18 % Control | > 150 mg/kg | – | inhibited | both states 3 and 4 respiration with succinate (liver mitochondria [7]): inhibited
[BH3-][N+](C)(C)C [Compound III, (CH3)3 N.BH3] | 65 % Control | 47 % Control | 72 ± 6 % Control | 17 ± 4 % Control | 57 ± 4 % Control | 18 ± 3 % Control | – | > 30% | 61 ± 3% | 56 ± 12 % Control | 117 ± 11 % Control | 28 ± 10 % Control | 71 ± 8 % Control | 740 mg/kg | 145% | inhibited | inhibition of free proteolytic cathepsin activity of liver (Cathepsin [3]): at least 75%; inhibition of free acid phosphatase activity in PMNs (Acid phosphatase [4]): 43%; inhibition of PMN cathepsin activity (Cathepsin [5]): at least 82%; activation at 5 µmol (cAMP levels in PMNs; in vitro incubation, 5 μmoles, read-out: increase of cyclic adenosine monophosphate levels in PMNs): 45%

— patent US4368194A, “Pharmacologically active amine boranes” (The United States of America as represented by the …, priority 1981, dated 1983)
